# Measured values taken from the supplement of paper PMC10307832.
# How the values were obtained:
# Assay in all cases: relative viability (nuclei count vs DMSO), 5 days (fraction); higher = more cells survive
# [1] = compound: CC(C)C[C@H](NC(=O)[C@H](Cc1ccccc1)NC(=O)c1cnccn1)B(O)O [Bortezomib] + CS(=O)(=O)N1CCN(Cc2cc3nc(-c4cccc5[nH]ncc45)nc(N4CCOCC4)c3s2)CC1 [Pictilisib] (partner 1 µM)
# How it was run: (§1)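 One day after seeding in 1536-well plates, lung cancer cell lines were dosed by pin tool. Dosing was either single-drug or a fixed anchor-drug dose plus five library-drug doses (not always all listed) in √10 steps. After 5 days, nuclei were stained in one fix-and-stain step and counted on 4× images, and relative viability is the nuclei count of treated wells over that of vehicle wells, given as the median of duplicate plates.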
# [2] = compound: CC(C)C[C@H](NC(=O)[C@H](Cc1ccccc1)NC(=O)c1cnccn1)B(O)O [Bortezomib] + NC(=O)Nc1cc(-c2cccc(F)c2)sc1C(=O)N[C@H]1CCCNC1 [AZD7762] (partner 0.2 µM)
# How it was run: as §1
# [3] = compound: CC1=CC(=NN1)NC2=CC(=NC(=N2)/C=C/C3=CC=CC=C3)N4CCN(CC4)C + CC(C)C[C@H](NC(=O)[C@H](Cc1ccccc1)NC(=O)c1cnccn1)B(O)O [Bortezomib] (partner 0.002 µM)
# How it was run: as §1
# [4] = compound: CC1=CC(=NN1)NC2=CC(=NC(=N2)/C=C/C3=CC=CC=C3)N4CCN(CC4)C + Nc1nc2[nH]cc(CCc3ccc(C(=O)N[C@@H](CCC(=O)O)C(=O)O)cc3)c2c(=O)[nH]1 [Pemetrexed] (partner 0.2 µM)
# How it was run: as §1
Cell Line,relative viability ([1]; first compound 0.0002 µM),relative viability ([1]; first compound 0.000632 µM),relative viability ([1]; first compound 0.002 µM),relative viability ([1]; first compound 0.006325 µM),relative viability ([1]; first compound 0.02 µM),relative viability ([2]; first compound 0.0002 µM),relative viability ([2]; first compound 0.000632 µM),relative viability ([2]; first compound 0.002 µM),relative viability ([2]; first compound 0.006325 µM),relative viability ([2]; first compound 0.02 µM),relative viability ([3]; first compound 0.08 µM),relative viability ([3]; first compound 0.253 µM),relative viability ([3]; first compound 0.8 µM),relative viability ([3]; first compound 2.53 µM),relative viability ([3]; first compound 8 µM),relative viability ([4]; first compound 0.08 µM),relative viability ([4]; first compound 0.253 µM),relative viability ([4]; first compound 0.8 µM),relative viability ([4]; first compound 2.53 µM),relative viability ([4]; first compound 8 µM)
NCI-H838,0.425,0.499,0.556,0.158,0.128,0.878,0.925,0.9,0.682,0.622,0.759,0.802,0.705,0.168,0.0832,0.235,0.25,0.213,0.166,0.111
Calu-6,0.829,0.925,0.726,0.102,0.0777,,,,,,0.912,0.947,0.764,0.174,0.13,,,,,
SW 900,,,,,,0.572,0.627,0.188,0.178,0.158,,,,,,0.469,0.491,0.49,0.407,0.102
LCLC-97TM1,0.177,0.178,0.195,0.132,0.207,0.179,,0.32,0.234,0.0966,0.742,0.57,0.77,0.114,0.0579,0.186,0.226,0.161,0.164,0.0709
HCC-15,0.649,0.745,0.733,0.396,0.111,1.04,1.14,1.17,0.763,0.127,0.981,0.961,1,0.377,0.235,0.244,0.22,0.225,0.192,0.113
CAL-12T,0.155,0.368,0.427,0.211,0.151,0.608,0.596,0.602,0.576,0.271,0.979,0.952,0.645,0.268,0.164,1.09,1.25,1.16,0.56,0.159
NCI-H727,0.34,0.345,0.329,0.192,0.106,0.631,0.611,0.688,0.698,0.595,0.841,0.586,0.867,0.463,0.255,,,,,
ABC-1,0.285,0.372,0.292,0.24,0.258,,0.712,0.184,0.223,0.191,0.418,0.268,0.303,0.257,0.205,,,,,
NCI-H2023,0.235,0.215,0.286,0.162,0.0837,,,,,,1.01,1.12,0.91,0.0954,0.0652,0.214,0.283,0.198,0.117,0.0581
NCI-H358,0.331,0.305,0.357,0.207,0.16,0.615,0.285,0.619,0.241,0.225,,,,,,0.163,0.172,0.173,0.128,0.0753
